Like-named read-outs stand apart in the source and are kept apart here. Where a SMILES comes first, the peptide text is derived from it. Bridges are numbered along the chain shown (N, C = ends). Where no end group is shown, it is not given here.
Assays:
[1] = test system: Doxorubicin induced Dilated Cardiomyopathy; assay: Reversion of Doxorubicin induced dilated cardiomyopathy in rats, dose-response; format: in vivo, Wistar rats; conditions: rats with Dx induced DCM; for mortality in the group respect to placebo or lower concentrations / total VEF recovery: 50 μg/kg; for DCM reversion two weeks after the treatment: 50 μg/kg to 500 μg/kg; for DCM reversion at 4 weeks of treatment: 100 to 500 μg/kg; for VEF recovery at lower concentrations: doses lower than 50 μg/kg
Protocol: To assess if there is any dose-response effect and reversion of DCM, Wistar rats were subjected to a treatment with 2 mg/kg of Doxorubicin (Dx) for 8 weeks, after the treatment all rats with a VEF drop higher than 40% were selected, divided in groups of n=8 and treated with different doses of compounds A221, A228 or A233 as follows: • 500 μg/kg, • 250 μg/kg, • 100 μg/kg, • 50 μg/kg, • 25 μg/kg, • 10 μg/kg • Saline Solution.
(FIG. 4, a A221, b A228 and c A233).

IGF-I mRNA = IGF-I mRNA in liver and GH level of intraperitoneally injected tilapias; format: in vivo, tilapia; conditions: liver of intraperitoneally injected tilapias
Protocol: IGF-I mRNa was determined in the liver of intraperitoneally injected tilapias monitoring also the GH level time course, showing the peptidic GHS analog compounds as able to stimulate in fish the GH levels in the bloodstream and at incrementing the IGF-I mRNA levels after the injection of the compounds as shown in table 4.

[2] = test system: Post-larvae of Litopenaeus vanamei; assay: Growth stimulation in shrimps by dietary supplementation; format: in vivo; conditions: compound at 1% in post-larvae crustacean diet
Protocol: The peptidic GHS analogs were included at 1% in a post-larvae crustacean diet. Post-larvae of Litopenaeus vanamei were fed with the aforementioned diet in parallel with a control group with 1% BSA addition. The effect was measured with an optical micrometer and weighing the animals in a 0.1 mg precision scale.

[3] = test system: primary cultures of granular cerebellum cells; format: cell-based, Wistar rats
Protocol: Primary cultures of granular cerebellum cells were obtained from 7-9 days Wistar rats. After a rapid dissection, rat cerebellums were submerged in a cold solution and meningeal membranes were removed, each organ was transferred to a 2-3 ml fresh medium solution and finely sliced. Cells were dissociated using a Pasteur pipette and filtered through a nylon […] membrane (Falcon, Franklin Lakes, N.J.). The number of viable cells was determined by cell counting in a hematocytometer with tripan blue as a marker. Cells were cultured on polylysine covered 96 well plates at a density of 6250 cells in […] final volume. Cultures were kept at 37° C. in 5%. CO2 after 24 h, 10 μM of cytosine arabinofuranose (AraC; Sigma) was added to inhibit the proliferation of non-neuronal cells. The capacity of neural damage prevention was tested adding 500 μM hydrogen peroxide in different concentrations of peptidic GHS analog compounds, Cell survival was determined using the Promega non-radioactive cytotoxicity proliferation assay, Cell Titer 96 (Promega).

tilapias = assay: Growth acceleration on juvenile tilapias treated intraperitoneally; format: in vivo; conditions: juvenile tilapia, ip 0.1 μg/g twice a week, three weeks
Protocol: The compounds were dissolved in a sodium phosphate (PBS) buffer solution and injected twice a week, during three weeks at 0.1 μg/g of humid fish weight (gbw). Compounds were applied individually to a group of 10 male tilapias with an average weight of 60.41±10.36 g and a control group with an average weight of 60.58±19.67 g was receiving PBS only as a control, measuring the average weight every week, all animals in the experiment were labelled with microchips (Stoelting Co. Wood Dale, USA.). for proper identification.

[4] = test system: tilapia Oreochromis sp. larvae; assay: Growth stimulation of tilapia larvae by immersion; format: in vivo; conditions: immersion 100 μg/L, one hour twice a week, three weeks
Protocol: (§1) Growth stimulation experiments on tilapia Oreochromis sp. larvae were performed evaluating groups of 100 larvae with 0.01 g average, using the peptidic GHS analogs, in a 100 μg/L concentration, twice a week using an immersion time of one hour.

lysozyme = assay: Lysozyme levels in tilapia larvae treated by immersion; format: in vivo, Oreochromis sp.; conditions: immersion 100 μg/L
Protocol: as §1
During this experiment lysozyme levels were also monitored and an increase of this immunity marker was obtained in the treated animals as shown in table 8.

PC12 cells = format: cell-based
Protocol: PC12 cells were stored in 75 cm^2 culture flasks on DMEM containing 5% bovine foetal serum and 10% horse serum, with 50 μg/ml gentamicin. Cells were incubated at 37° C. in 5% CO2. To induce differentiation cells were transferred at a density of 1×10^4 to polylysine covered 96 well plates in NGF supplemented DMEM media for 7 days, with medium replacement every 2-3 days. After differentiation cells were incubated with peptidic GHS analog compounds, at different concentrations for 72 h. Cell survival and proliferation was determined using the Promega non-radioactive cytotoxicity proliferation assay, Cell Titer 96, based in the conversion of 3-(4,5-dimethylthiazole-2-yl)-2,5-diphenyltetrazolium bromide (MTT) in to a spectrophotometrically detectable product. After deprivation of NGF medium is removed and 15 μl of the DMEM dissolved dye is added, after 4 hours of 37° C. incubation 100 μl of the stopping solution is added and absorbance is measured at 570 nm

Litopenaeus vanamei [5] = assay: Growing of shrimp larvae by dipping in solution of the compounds; format: in vivo; conditions: four dips of one hour every three days, 0.1 g/L
Protocol: (§2) Shrimp larvae were subjected two four dips, for one hour every three days with different peptidic GHS analogs at 0.1 g/L. The control group was subjected to the same frequency of dipping with 1 mg/L BSA.

[6] = test system: Doxorubicin induced Dilated Cardiomyopathy; assay: Prevention of Doxorubicin induced myocardial failure in rats (VEF, forced swimming); format: in vivo, Wistar rats; conditions: for ventricular ejection fraction (VEF) with respect to the healthy control: rats, Dx 2 mg/kg 8 weeks plus compound ip 500 μg/Kg, placebo VEF drop about 40%; for survival after forced swimming: Dx treated rats, compound ip 500 μg/Kg, 4° C. water 30 minutes, Dx-saline 45%
Protocol: To reproduce the physiopathogenic effects of a Dilated Cardiomyopathy (DCM) female Wistar rats of 160 g were treated with 2 mg/kg Doxorubicin (Dx) during 8 weeks. A group of this rats was also treated in parallel with compounds A221, A228 or A233 intraperitoneally at 500 μg/Kg during the 8 weeks of Dx treatment, another Dx treated group was also receiving saline solution as a placebo, and as a healthy control for the experiment another group of untreated Wistar rats of the same age was used. After the 8 week treatment all the rats were tested with an echocardiogram, to test the ventricular functionality and assess the ventricular ejection fraction (VEF).

[7] = test system: Litopenaeus vanamei post-larvae; assay: Growth of shrimp post-larvae fed Artemia-bioencapsulated compounds; format: in vivo; conditions: Artemia bioencapsulated (10 mh/L, one hour), fed four times a day for one month
Protocol: The peptidic GHS analogs were bioencapsulated in Artemia to be fed to Litopenaeus vanamei post-larvae. For the encapsulation the compounds were added in a 10 mh/L left for an hour, harvested and washed. The animals were fed four times a day for one month while the control group was fed with BSA encapsulated Artemia The effect was measured with an optical micrometer and weighing the animals in a 0.1 mg precision scale.

Litopenaeus vanamei [8] = assay: Shrimp dipping experiment in production conditions; format: in vivo
Protocol: as §2
This experiment was also performed in production conditions for compounds A221, A228 y A233, with a 20% of higher survival compared with the controls, keeping a stimulation of 110% on the weight and 30% in the size, showing on the treated animals a better homogeneity on the size distribution with only a 30% and a 8% of variation coefficient in weight and size respectively, on contras with a 77% and 30% in the non treated group.

[9] = 500 μM hydrogen peroxide, rat cerebellum granular cells, read-out: IC50 during the induced neuronal damage by Hydrogen Peroxide addition to a primary culture of neurons
[10] = differentiated PC12 cells, 72 h incubation, MTT, read-out: IC50 during the NGF deprivation induced neuronal death

Row | Compound | mortality in the group respect to placebo or lower concentrations [1] | total VEF recovery [1] | DCM reversion two weeks after the treatment [1] | DCM reversion at 4 weeks of treatment [1] | VEF recovery at lower concentrations [1] | Normalized IGF-I mRNA levels to a non related synthetic peptide control group (IGF-I mRNA) | Size Inc. (%), control group growing = 100% [2] | IC50 [3] | Weight Inc. (%), control group growing = 100% (tilapias) | Weight Inc. (%), control group growing = 100% [4] | Lysozyme levels of the treated animals relative to the control group (lysozyme) | Size Inc. (%), control group growing = 100% (Litopenaeus vanamei [5]) | Weight Inc. (%), control group growing = 100% (Litopenaeus vanamei [5]) | ventricular ejection fraction (VEF) with respect to the healthy control [6] | Size Inc. (%), control group growing = 100% [7] | higher survival compared with the controls (Litopenaeus vanamei [8]) | stimulation in the size (Litopenaeus vanamei [8]) | stimulation on the weight (Litopenaeus vanamei [8]) | IC50 [3, 9] | IC50 (PC12 cells; [10]) | other results
1 | NCC(=O)N[C@@H](CO)C(=O)N[C@H]1CCCCNC(=O)C[C@@H](C(=O)N[C@@H](CO)C(=O)N2CCC[C@H]2C(=O)N[C@@H](CCC(=O)O)C(=O)N[C@@H](Cc2c[nH]cn2)C(=O)N[C@@H](CCC(N)=O)C(=O)O)NC(=O)[C@H](Cc2ccccc2)NC1=O [Compound A221, GSKFDSPEHQ] (H-GSKFDSPEHQ-OH; lactam 3-5; N-terminus and C-terminus assumed) | somehow effective to reduce mortality | not effective for the total VEF recovery | partially reverts DCM | DCM reversion is complete | do not recovered VEF | 1.32 | 130.0% | 1.8 µM | 98.0% | 97.0% | 1.01 | 112.0% | 120.1% | slightly modified VEF | 130.2% | 20% | 30% | 110% |  |  | IC50 (PC12 cells; 72 h): 2.02 µM
2 | GKFDLSPEHQ [Compound A233, L-amino acid peptide with internal side-chain cycle, SEC; ID NO: 13] | somehow effective to reduce mortality | not effective for the total VEF recovery | partially reverts DCM | DCM reversion is complete | do not recovered VEF | 1.69 | 140.1% |  | 165.0% | 155.0% | 2.68 | 124.9% | 143.0% | slightly modified VEF | 140.0% | 20% | 30% | 110% | 3.56 µM | 5 µM | survival after forced swimming [6]: 100%
3 | GKFGDLSPEHQ [Compound A228, L-amino acid peptide with internal side-chain cycle, SEC; ID NO: 8] | somehow effective to reduce mortality | not effective for the total VEF recovery | partially reverts DCM | DCM reversion is complete | do not recovered VEF | 1.18 | 140.0% |  | 130.6% | 132.0% | 1.08 | 118.9% | 128.2% | slightly modified VEF | 140.0% | 20% | 30% | 110% | 1.77 µM | 3.99 µM | survival after forced swimming [6]: 100%
4 | HSKGYDLDH [Compound A227, L-amino acid peptide with internal side-chain cycle, SEC; ID NO: 7] |  |  |  |  |  | 1.28 | 139.0% |  | 139.9% | 140.6% | 1.52 | 118.5% | 128.6% |  | 140.0% |  |  |  | 2.26 µM | 3.06 µM | 
5 | SSDFKLYWG [Compound A224, L-amino acid peptide with internal side-chain cycle, SEC; ID NO: 4] |  |  |  |  |  | 1.41 | 131.2% |  | 132.7% | 130.0% | 1.37 | 116.0% | 127.0% |  | 130.0% |  |  |  | 3.2 µM | 2.37 µM | 
6 | STDFKPFAI [Compound A226, STDFKPFAI] |  |  |  |  |  | 1.13 | 130.4% | 3.58 µM | 122.4% | 120.4% | 1.17 | 112.2% | 120.1% |  | 132.0% |  |  |  |  |  | IC50 (PC12 cells; 72 h): 4.87 µM
